{"source": "patent US7879572B2", "about": "“Regulation of F1-ATPase beta subunit cellular location” (Board of Supervisors of Louisiana State University And …, priority 2004, dated 2011)", "origin": "cited, not measured here", "key": {"islet cells": {"test_system": "islet cells", "conditions": "8-Br-cAMP 1 mM, independent of extracellular Ca2+"}}, "data": [{"compound": "NCCc1c[nH]c2ccc(O)cc12", "note": "[serotonin]", "values": [{"measurement": "dietary fat intake", "setting": "injections into the PVN", "result": "inhibited dietary fat intake"}]}, {"compound": "Nc1ncnc2c1nc(Br)n2[C@@H]1O[C@@H]2COP(=O)(O)O[C@H]2[C@H]1O", "note": "[8-Br-cAMP]", "values": [{"measurement": "effect on enterostatin inhibition of insulin secretion", "setting": "islet cells", "result": "blocked"}]}, {"compound": "Oc1ccc2c3c1O[C@H]1c4[nH]c5c(c4C[C@@]4(O)[C@@H](C2)N(CC2CC2)CC[C@]314)C[C@@]1(O)[C@H]2Cc3ccc(O)c4c3[C@@]1(CCN2CC1CC1)[C@H]5O4", "note": "[nor-Binaltorphamine (BNI), nor-Binaltorphamine]", "values": [{"measurement": "selective fat intake", "setting": "kappa-opioidergic antagonist", "result": "mimicked the effect of enterostatin"}]}]}
